The target of this assay is T1, SGK1 (Homo sapiens, UniProt O00141).
T1 sequence (O00141 1-431): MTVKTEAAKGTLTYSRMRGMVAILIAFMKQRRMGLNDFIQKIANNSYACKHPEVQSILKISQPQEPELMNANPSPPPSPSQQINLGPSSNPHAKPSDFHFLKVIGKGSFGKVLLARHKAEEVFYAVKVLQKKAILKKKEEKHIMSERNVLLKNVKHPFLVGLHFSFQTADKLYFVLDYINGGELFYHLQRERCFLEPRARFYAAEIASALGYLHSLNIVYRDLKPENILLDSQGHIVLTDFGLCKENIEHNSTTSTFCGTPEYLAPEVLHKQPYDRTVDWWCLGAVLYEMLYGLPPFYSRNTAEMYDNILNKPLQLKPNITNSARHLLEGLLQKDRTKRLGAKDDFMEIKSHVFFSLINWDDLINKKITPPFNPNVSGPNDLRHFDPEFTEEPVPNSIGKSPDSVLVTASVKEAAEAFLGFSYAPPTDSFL
Briefly: Cellular thermal shift assay in cell lysates. Format: binding. The source says: To identify active compounds with SGK1 inhibitory activity from Ext.R, a novel mass‐spectrometry based kinase inhibitory assay was developed. A polypeptide sequence ([…], m/z: 618.6) derived from glycogen Synthase Kinase‐3(GSK3), a known substrate of SGK1, was optimized and synthesized. We subsequently used liquid chromatography coupled with mass spectrometry (LC/MS) to detect and quantify its phosphorylation level ([…](p)FAE, m/z:658.7) (Figure 3A).^[ [26] ^] Basal level SGK1 was supplemented to each well, and the peak area of phosphorylation was measured in the presence or absence of testing compounds. […] After investigating the major chemical constituents in Ext.R (Table S3, Supporting Information), a set of compounds in Ext.R were subsequently screened for their impacts on SGK1 activity. […] The direct interaction between HBT and SGK1 was further verified by temperature‐ and dose‐dependent cellular thermal shift assays (Figure 3E,F). We further performed a direct binding assay of HBT to SGK1 by KINOMEscan assay (Eurofins Discovery).
Figure 3 Mass spectrometry‐based kinase inhibitory assay for screening SGK1 inhibitor. A) Illustration of the mass spectrometry‐based assay for screening SGK1 inhibitors. […] G) Direct binding assay of HBT to SGK1 by KINOMEscan assay (Eurofins Discovery).

In the case of `O=c1c(O)c(-c2ccc(O)cc2)oc2c(O)c(O)cc(O)c12` [HBT, herbacetin], the “thermal stability of SGK1, concentration-dependent cellular thermal shift assay” value (65 °C) is reported as “increases the thermal stability of SGK1”. Also, the “thermal stability of SGK1, temperature-dependent cellular thermal shift assay” value (HBT 100 µmol) is “increases the thermal stability of SGK1”.

The values above are taken from publication PMC8805583, “Discovery of Herbacetin as a Novel SGK1 Inhibitor to Alleviate Myocardial Hypertrophy” (Advanced Science, 2021).
